Experimental data from PubChem BioAssay (NCI).
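Cultured in 96-well plates, cells were exposed to test compound for 48 hours across five concentrations. GI50 is the concentration that inhibits growth by half. At the TGI there is no net growth.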

How the values were obtained:
Assay in all cases: DTP human tumour cell line panel, 48 h
786-0 renal = test system: 786-0 renal
A549 NSCLC = test system: A549 NSCLC
ACHN renal = test system: ACHN renal
BT-549 breast = test system: BT-549 breast
CAKI-1 renal = test system: CAKI-1 renal
COLO 205 colon = test system: COLO 205 colon
DU-145 prostate = test system: DU-145 prostate
EKVX NSCLC = test system: EKVX NSCLC
HCT-15 colon = test system: HCT-15 colon
HL-60(TB) leukemia = test system: HL-60(TB) leukemia
HOP-62 NSCLC = test system: HOP-62 NSCLC
HOP-92 NSCLC = test system: HOP-92 NSCLC
HS 578T breast = test system: HS 578T breast
HT29 colon = test system: HT29 colon
IGROV1 ovarian = test system: IGROV1 ovarian
K-562 leukemia = test system: K-562 leukemia
KM12 colon = test system: KM12 colon
LOX IMVI melanoma = test system: LOX IMVI melanoma
M14 melanoma = test system: M14 melanoma
MALME-3M melanoma = test system: MALME-3M melanoma
MCF7 breast = test system: MCF7 breast
MDA-MB-231 breast = test system: MDA-MB-231 breast
MDA-MB-435 = test system: MDA-MB-435
MOLT-4 leukemia = test system: MOLT-4 leukemia
NCI-H226 lung = test system: NCI-H226 lung
NCI-H23 lung = test system: NCI-H23 lung
NCI-H460 lung = test system: NCI-H460 lung
NCI-H522 lung = test system: NCI-H522 lung
NCI/ADR-RES ovarian = test system: NCI/ADR-RES ovarian
OVCAR-3 ovarian = test system: OVCAR-3 ovarian
OVCAR-4 ovarian = test system: OVCAR-4 ovarian
OVCAR-5 ovarian = test system: OVCAR-5 ovarian
OVCAR-8 ovarian = test system: OVCAR-8 ovarian
PC-3 prostate = test system: PC-3 prostate
RPMI-8226 leukemia = test system: RPMI-8226 leukemia
RXF 393 renal = test system: RXF 393 renal
SF-268 CNS = test system: SF-268 CNS
SF-295 CNS = test system: SF-295 CNS
SF-539 CNS = test system: SF-539 CNS
SK-MEL-2 melanoma = test system: SK-MEL-2 melanoma
SK-MEL-28 melanoma = test system: SK-MEL-28 melanoma
SK-MEL-5 melanoma = test system: SK-MEL-5 melanoma
SK-OV-3 ovarian = test system: SK-OV-3 ovarian
SN12C renal = test system: SN12C renal
SNB-19 CNS = test system: SNB-19 CNS
SNB-75 CNS = test system: SNB-75 CNS
SR leukemia = test system: SR leukemia
SW-620 colon = test system: SW-620 colon
T-47D breast = test system: T-47D breast
U251 CNS = test system: U251 CNS
UACC-257 melanoma = test system: UACC-257 melanoma
UACC-62 melanoma = test system: UACC-62 melanoma
UO-31 renal = test system: UO-31 renal

Q: For `Oc1cc2ccccc2cc1-c1n[nH]c(=S)n1CCc1ccccc1`, which GI50 (786-0 renal) is on record?
A: 18.3 µM

Q: What about the TGI (786-0 renal) of the same compound?
A: 36.2 µM

Q: And the GI50 (A549 NSCLC)?
A: 37.3 µM

Q: And the TGI (A549 NSCLC)?
A: > 100 µM

Q: What about the GI50 (ACHN renal) of the same compound?
A: 22.4 µM

Q: And the TGI (ACHN renal)?
A: 69.8 µM

Q: And the GI50 (BT-549 breast)?
A: 18.6 µM

Q: What about the TGI (BT-549 breast) of the same compound?
A: 45.9 µM

Q: And the GI50 (CAKI-1 renal)?
A: 30.9 µM

Q: And the TGI (CAKI-1 renal)?
A: 73.9 µM

Q: What about the GI50 (COLO 205 colon) of the same compound?
A: 35.1 µM

Q: What about the TGI (COLO 205 colon) of the same compound?
A: > 100 µM

Q: What about the GI50 (DU-145 prostate) of the same compound?
A: 37.1 µM

Q: And the TGI (DU-145 prostate)?
A: > 100 µM

Q: And the GI50 (EKVX NSCLC)?
A: 33.7 µM

Q: What about the TGI (EKVX NSCLC) of the same compound?
A: 79.3 µM

Q: And the GI50 (HCT-15 colon)?
A: 22.5 µM

Q: And the TGI (HCT-15 colon)?
A: 51.9 µM

Q: What about the GI50 (HL-60(TB) leukemia) of the same compound?
A: 73.2 µM

Q: And the TGI (HL-60(TB) leukemia)?
A: > 100 µM

Q: What about the GI50 (HOP-62 NSCLC) of the same compound?
A: 25.7 µM

Q: And the TGI (HOP-62 NSCLC)?
A: 43.6 µM

Q: And the GI50 (HOP-92 NSCLC)?
A: 55.7 µM

Q: And the TGI (HOP-92 NSCLC)?
A: > 100 µM

Q: What about the GI50 (HS 578T breast) of the same compound?
A: 24.2 µM

Q: And the TGI (HS 578T breast)?
A: 57 µM

Q: What about the GI50 (HT29 colon) of the same compound?
A: 35.7 µM

Q: What about the TGI (HT29 colon) of the same compound?
A: 91.8 µM

Q: What about the GI50 (IGROV1 ovarian) of the same compound?
A: 14.8 µM

Q: And the TGI (IGROV1 ovarian)?
A: 30.3 µM

Q: What about the GI50 (K-562 leukemia) of the same compound?
A: 68.2 µM

Q: What about the TGI (K-562 leukemia) of the same compound?
A: > 100 µM

Q: What about the GI50 (KM12 colon) of the same compound?
A: 43.2 µM

Q: And the TGI (KM12 colon)?
A: > 100 µM

Q: And the GI50 (LOX IMVI melanoma)?
A: 22.1 µM

Q: What about the TGI (LOX IMVI melanoma) of the same compound?
A: 38.7 µM

Q: And the GI50 (M14 melanoma)?
A: 15.8 µM

Q: And the TGI (M14 melanoma)?
A: 32.2 µM

Q: And the GI50 (MALME-3M melanoma)?
A: 26.7 µM

Q: What about the TGI (MALME-3M melanoma) of the same compound?
A: 58.9 µM

Q: And the GI50 (MCF7 breast)?
A: 22.5 µM

Q: And the TGI (MCF7 breast)?
A: 44.5 µM

Q: What about the GI50 (MDA-MB-231 breast) of the same compound?
A: 22.1 µM

Q: What about the TGI (MDA-MB-231 breast) of the same compound?
A: 57.8 µM

Q: And the GI50 (MDA-MB-435)?
A: 26.2 µM

Q: And the TGI (MDA-MB-435)?
A: 91.7 µM

Q: And the GI50 (MOLT-4 leukemia)?
A: > 100 µM

Q: And the TGI (MOLT-4 leukemia)?
A: > 100 µM

Q: What about the GI50 (NCI-H226 lung) of the same compound?
A: 19.9 µM

Q: What about the TGI (NCI-H226 lung) of the same compound?
A: 55.3 µM

Q: What about the GI50 (NCI-H23 lung) of the same compound?
A: 16.5 µM

Q: And the TGI (NCI-H23 lung)?
A: 36.1 µM

Q: What about the GI50 (NCI-H460 lung) of the same compound?
A: 20.2 µM

Q: And the TGI (NCI-H460 lung)?
A: 35.3 µM

Q: What about the GI50 (NCI-H522 lung) of the same compound?
A: 15.3 µM

Q: And the TGI (NCI-H522 lung)?
A: 31.3 µM

Q: What about the GI50 (NCI/ADR-RES ovarian) of the same compound?
A: 21.1 µM

Q: What about the TGI (NCI/ADR-RES ovarian) of the same compound?
A: 43.5 µM

Q: What about the GI50 (OVCAR-3 ovarian) of the same compound?
A: 34.4 µM

Q: And the TGI (OVCAR-3 ovarian)?
A: 94 µM

Q: What about the GI50 (OVCAR-4 ovarian) of the same compound?
A: 42.2 µM

Q: And the TGI (OVCAR-4 ovarian)?
A: > 100 µM

Q: What about the GI50 (OVCAR-5 ovarian) of the same compound?
A: 24.1 µM

Q: What about the TGI (OVCAR-5 ovarian) of the same compound?
A: 53.4 µM

Q: What about the GI50 (OVCAR-8 ovarian) of the same compound?
A: 35.5 µM

Q: What about the TGI (OVCAR-8 ovarian) of the same compound?
A: > 100 µM

Q: And the GI50 (PC-3 prostate)?
A: 20.6 µM

Q: And the TGI (PC-3 prostate)?
A: 43.5 µM

Q: What about the GI50 (RPMI-8226 leukemia) of the same compound?
A: 18.1 µM

Q: And the TGI (RPMI-8226 leukemia)?
A: 62.5 µM

Q: And the GI50 (RXF 393 renal)?
A: 30.7 µM

Q: What about the TGI (RXF 393 renal) of the same compound?
A: 59 µM

Q: And the GI50 (SF-268 CNS)?
A: 19.7 µM

Q: What about the TGI (SF-268 CNS) of the same compound?
A: 37.2 µM

Q: What about the GI50 (SF-295 CNS) of the same compound?
A: 42.3 µM

Q: And the TGI (SF-295 CNS)?
A: > 100 µM

Q: What about the GI50 (SF-539 CNS) of the same compound?
A: 21.3 µM

Q: What about the TGI (SF-539 CNS) of the same compound?
A: 44.5 µM

Q: And the GI50 (SK-MEL-2 melanoma)?
A: 16.3 µM

Q: And the TGI (SK-MEL-2 melanoma)?
A: 32.8 µM

Q: And the GI50 (SK-MEL-28 melanoma)?
A: 44.8 µM

Q: And the TGI (SK-MEL-28 melanoma)?
A: > 100 µM

Q: What about the GI50 (SK-MEL-5 melanoma) of the same compound?
A: 19.4 µM

Q: And the TGI (SK-MEL-5 melanoma)?
A: 43.6 µM

Q: And the GI50 (SK-OV-3 ovarian)?
A: 25.9 µM

Q: And the TGI (SK-OV-3 ovarian)?
A: > 100 µM

Q: What about the GI50 (SN12C renal) of the same compound?
A: 16.7 µM

Q: What about the TGI (SN12C renal) of the same compound?
A: 32.6 µM

Q: And the GI50 (SNB-19 CNS)?
A: 36.7 µM

Q: And the TGI (SNB-19 CNS)?
A: > 100 µM

Q: And the GI50 (SNB-75 CNS)?
A: 73.2 µM

Q: And the TGI (SNB-75 CNS)?
A: > 100 µM

Q: And the GI50 (SR leukemia)?
A: > 100 µM

Q: And the TGI (SR leukemia)?
A: > 100 µM

Q: And the GI50 (SW-620 colon)?
A: 36.2 µM

Q: What about the TGI (SW-620 colon) of the same compound?
A: > 100 µM

Q: And the GI50 (T-47D breast)?
A: 43.6 µM

Q: What about the TGI (T-47D breast) of the same compound?
A: > 100 µM

Q: What about the GI50 (U251 CNS) of the same compound?
A: 20.3 µM

Q: And the TGI (U251 CNS)?
A: 39 µM

Q: And the GI50 (UACC-257 melanoma)?
A: 30 µM

Q: And the TGI (UACC-257 melanoma)?
A: 65.6 µM

Q: And the GI50 (UACC-62 melanoma)?
A: 21.2 µM

Q: What about the TGI (UACC-62 melanoma) of the same compound?
A: 39.6 µM

Q: What about the GI50 (UO-31 renal) of the same compound?
A: 20.3 µM

Q: And the TGI (UO-31 renal)?
A: 52.7 µM
